Results reported in patent US4283394A, “Cytotoxic nucleoside-corticosteroid phosphodiesters” (priority 1979, dated 1981).

Experiments:
[1] = test system: phosphodiesterase I from Crotalus adamenteus; experiment: Enzymatic cleavage of the phosphodiester bond by phosphodiesterase I; format: in vitro ADME; conditions: pH 8.8, 24 h, 37° C.; for hydrolysis by phosphodiesterase I: 5 μmol conjugate, 1.5 mg enzyme
Protocol: Enzymatic cleavage of the phosphodiester bond of the conjugates was studied by incubating the conjugates (5 μmol) with various enzymes (1.5-3 mg) in appropriate buffer and with plasma (final volume 0.5 ml). An aliquot (200 μl) of the 24 h incubation mixtures was streaked on Whatman 3 MM paper (23×57 cm) with the authentic markers and the paper was developed in Solvent A. The bands were characterized and analyzed semi-quantitatively by UV estimation of the chromatographs. […] The conjugates also remained 60-85 percent intact during the incubation with baboon plasma at 37° C. for 24 h. From the results of these tests, conjugates of this type appear capable of serving as sustained release froms of the parent steroid and nucleoside components thereof.
The conjugate (5 μmol) was incubated with 1 M Tris-HCl, pH 8.8 (0.05 ml) and purified phosphodiesterase I from Crotalus adamenteus (1.5 mg., Sigma Chemical Co.) in 0.45 ml. of H2 O for 24 h at 37° C.

[2] = test system: mouse leukemia L-1210 cells; experiment: Antiproliferative activity in vitro, viability of L-1210 cells in culture; format: cell-based; conditions: for antiproliferative activity compared with ara-CMP and ara-C: 72 h; for IC50: Mus musculus, L1210, 72 h, read-out: Concentration (μM) for 50 percent loss of viability at 72 hours (ED50)
Protocol: The antiproliferative activity of the conjugates, ara-C, ara-CMP and the steroids was determined by measuring their effects against mouse leukemia L-1210 cells in culture. The assay was performed in test tubes without agitation according to the procedure described by Hong et al. in J. Med. Chem. 16: 139 (1973). After 24, 48 and 72 h, viable cell counts were performed on the cultures which had been incubated with compounds in various concentrations and the concentration of each compound required to produce a 50 percent inhibition of growth (ED50) after 72 h was determined by interpolation using the method described by Tritsch et al. in Cancer Biochem. Biophys. 2: 87 (1977).

For `C[C@]12C=CC(=O)C=C1CC[C@@H]1[C@@H]2[C@@H](O)C[C@@]2(C)[C@H]1CC[C@]2(O)C(=O)CO[P+]([O-])(O)OC[C@H]1O[C@@H](n2ccc(N)nc2=O)[C@@H](O)[C@@H]1O` (stereo partly drawn) [Pred-p-ara-C (I), 5'-(Prednisolone-21-phosphoryl)-1-β-D-arabinofuranosylcytosine], the “hydrolysis by phosphodiesterase I” value [1] was “hydrolyzed completely”, the “product ara-C” value [1] was 10% and the “product ara-CMP” value [1] was 40%. The “product prednisolone or prednisone” value [1] was 50%, the “antiproliferative activity compared with ara-CMP and ara-C” value [2] was “activity comparable to ara-CMP” and the IC50 [2] was 0.05 µM.
In the case of `C[C@]12C=CC(=O)C=C1CC[C@@H]1[C@@H]2C(=O)C[C@@]2(C)[C@H]1CC[C@]2(O)C(=O)CO[P+]([O-])(O)OC[C@H]1O[C@@H](n2ccc(N)nc2=O)[C@@H](O)[C@@H]1O` (stereo partly drawn) [Prednisone-p-ara-C (II), 5'-(Prednisone-21-phosphoryl)-1-β-D-arabinofuranosylcytosine], the “hydrolysis by phosphodiesterase I” value [1] is reported as “hydrolyzed completely”, the “product ara-C” value [1] is reported as 10% and the “product ara-CMP” value [1] is reported as 40%. For the same molecule, the “product prednisolone or prednisone” value [1] was 50%, the “antiproliferative activity compared with ara-CMP and ara-C” value [2] was “less active than both ara-CMP and ara-C” and the IC50 [2] was 0.5 µM.
